Experimental data taken from patent US20260364184A1, “COMPOUND BASED ON OXOISOINDOLINYL-SUBSTITUTED TETRAHYDROPYRIMIDINE-DIONE AND USE THEREOF” (GLUETACS THERAPEUTICS (SHANGHAI) CO., LTD., priority 2023, published 2026).

Target: T1, IRAK4 (Homo sapiens, UniProt Q9NWZ3)
T1 construct: expression of target proteins in cells; endogenous in cells
T1 sequence (Q9NWZ3 1-460): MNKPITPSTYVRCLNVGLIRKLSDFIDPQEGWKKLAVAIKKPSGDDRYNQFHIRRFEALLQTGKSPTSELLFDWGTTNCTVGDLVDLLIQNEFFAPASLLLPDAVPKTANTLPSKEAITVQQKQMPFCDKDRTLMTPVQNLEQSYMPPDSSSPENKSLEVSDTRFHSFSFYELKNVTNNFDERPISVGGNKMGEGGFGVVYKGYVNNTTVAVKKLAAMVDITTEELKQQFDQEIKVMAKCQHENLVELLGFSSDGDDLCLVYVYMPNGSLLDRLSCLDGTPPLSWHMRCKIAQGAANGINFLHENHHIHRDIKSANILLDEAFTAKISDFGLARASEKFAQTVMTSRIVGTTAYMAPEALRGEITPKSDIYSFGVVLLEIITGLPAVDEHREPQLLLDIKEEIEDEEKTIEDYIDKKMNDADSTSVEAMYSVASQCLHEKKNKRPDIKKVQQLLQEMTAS
Assay: Western blot degradation of IRAK4
Format: cell-based
Settings: hPBMC Cell; 24 hours
Description: Conventional Western blot assay was performed to evaluate the effects of the compounds of the present disclosure on the expression of target proteins in cells.
(1) Cell Seeding and Protein Harvesting: The selected cells were processed according to the cell seeding procedure and protein harvesting procedure in Table II-2.
(2) To the collected supernatant, 5×SDS sample loading buffer was added, followed by denaturation at 95 °C for 5 minutes. The denatured samples were then separated by SDS-PAGE electrophoresis on a polyacrylamide gel. Proteins were transferred to a nitrocellulose membrane (0.45 μm NC membrane), blocked with blocking buffer at room temperature for 1 hour, and subjected to antibody incubation and development procedures according to the antibody manufacturer's instructions (Cell Signaling Technology).
Half-Maximal Degradation Concentration value (the drug concentration required for degrading proteins by 50%, abbreviated as DC50) reads method: comparing the grayscale values of Western blot bands from drug-treated samples with those from blank DMSO-treated controls, and identifying the drug concentration range at which the grayscale value is half that of the DMSO-treated control bands.
DC50 values can be calculated using ImageJ software to measure grayscale values of Western blot bands from drug-treated samples. The concentration-response curve is fitted to estimate the drug concentration corresponding to half the grayscale value.
Target protein remaining (%) refers to the percentage of target protein remaining in cells after treatment with protein degrader compounds.
Calculation method for target protein remaining (%): Use ImageJ software to measure grayscale values of Western blot bands from drug (protein degrader)-treated samples. The grayscale value of drug-treated bands is divided by that of internal control protein bands, and the resulting quotient is normalized to obtain the relative percentage of remaining target protein after protein degrader treatment.
Target protein degradation rate (%)=1−target protein remaining (%).

SMILES	Degradation of substrate protein IRAK4 (substrate protein remaining %)
CC(C)(O)c1cc2nn(C3CCN(CC4CCN(C5CCN(c6ccc7c(c6)C(=O)N(N6CCC(=O)NC6=O)C7=O)CC5)CC4)CC3)cc2cc1NC(=O)c1cccc(C(F)(F)F)n1 [GT-05290, N-(2-(1-((1′-(2-(2,4-dioxotetrahydropyrimidin-1(2H)-yl)-1,3-dioxoisoindolin-5-yl)-[1,4′-bipiperidin]-4-yl)methyl)piperidin-4-yl)-6-(2-hydroxypropan-2-yl)-2H-indazol-5-yl)-6-(trifluoromethyl) picolinamide]	A (0%≤substrate protein remaining %≤80%)
CC(C)Nc1cc(-n2ccc3cc(C#N)cnc32)ncc1C(=O)NC1CCN(Cc2ccc3c(c2)C(=O)N(N2CCC(=O)NC2=O)C3=O)CC1 [GT-05326, 6-(5-cyano-1H-pyrrolo[2,3-b]pyridin-1-yl)-N-(1-((2-(2,4-dioxotetrahydropyrimidin-1(2H)-yl)-1,3-dioxoisoindolin-5-yl)methyl)piperidin-4-yl)-4-((isopropyl)amino) nicotinamide]	A (0%≤substrate protein remaining %≤80%)
CC(C)Nc1cc(-n2ccc3cc(C#N)cnc32)ncc1C(=O)NC1CCN(CC2CCN(c3ccc4c(c3)C(=O)N(N3CCC(=O)NC3=O)C4=O)CC2)CC1 [GT-05813, 6-(5-cyano-1H-pyrrolo[2,3-b]pyridin-1-yl)-N-(1-((1-(2-(2,4-dioxotetrahydropyrimidin-1(2H)-yl)-1,3-dioxoisoindolin-5-yl)piperidin-4-yl)methyl)piperidin-4-yl)-4-(isopropylamino) nicotinamide]	A (0%≤substrate protein remaining %≤80%)
CC(C)Nc1cc(-n2ccc3cc(C#N)cnc32)ncc1C(=O)NC1CCN(CC2CCN(c3cccc4c3C(=O)N(N3CCC(=O)NC3=O)C4=O)CC2)CC1 [GT-05814, 6-(5-cyano-1H-pyrrolo[2,3-b]pyridin-1-yl)-N-(1-((1-(2-(2,4-dioxotetrahydropyrimidin-1(2H)-yl)-1,3-dioxoisoindolin-4-yl)piperidin-4-yl)methyl)piperidin-4-yl)-4-(isopropylamino) nicotinamide]	A (0%≤substrate protein remaining %≤80%)
COc1cc2nn(C3CCN(CC4CCN(c5cccc6c5C(=O)N(N5CCC(=O)NC5=O)C6=O)CC4)CC3)cc2cc1NC(=O)c1cccc(C(F)(F)F)c1 [GT-05815, N-(2-(1-((1-(2-(2,4-dioxotetrahydropyrimidin-1(2H)-yl)-1,3-dioxoisoindolin-4-yl)piperidin-4-yl)methyl)piperidin-4-yl)-6-methoxy-2H-indazol-5-yl)-3-(trifluoromethyl)benzamide]	A (0%≤substrate protein remaining %≤80%)
O=C1CCN(N2C(=O)c3ccc(N4CC5CC(C4)N5C[C@H]4CC[C@H](n5cc(NC(=O)c6cnn7ccc(N8C[C@H]9C[C@@H]8CO9)nc67)c(C(F)F)n5)CC4)cc3C2=O)C(=O)N1 [GT-05822, 5-((1R,4R)-2-oxa-5-azabicyclo[2.2.1]heptan-5-yl)-N-(3-(difluoromethyl)-1-((1r,4R)-4-((3-(2-(2,4-dioxotetrahydropyrimidin-1(2H)-yl)-1,3-dioxoisoindolin-5-yl)-3,6-diazabicyclo[3.1.1]heptan-6-yl)methyl)cyclohexyl)-1H-pyrazol-4-yl)pyrazolo[1,5-a]pyrimidine-3-carboxamide]	A (0%≤substrate protein remaining %≤80%)
O=C1CCN(N2C(=O)c3ccc(N4CCN(C[C@H]5CC[C@H](n6cc(NC(=O)c7cnn8ccc(N9C[C@H]%10C[C@@H]9CO%10)nc78)c(C(F)F)n6)CC5)CC4)c(F)c3C2=O)C(=O)N1 [GT-05827, 5-((1R,4R)-2-oxa-5-azabicyclo[2.2.1]heptan-5-yl)-N-(3-(difluoromethyl)-1-((1r,4R)-4-((4-(2-(2,4-dioxotetrahydropyrimidin-1(2H)-yl)-4-fluoro-1,3-dioxoisoindolin-5-yl)piperazin-1-yl)methyl)cyclohexyl)-1H-pyrazol-4-yl)pyrazolo[1,5-a]pyrimidine-3-carboxamide]	A (0%≤substrate protein remaining %≤80%)
COc1cc2nn([C@H]3CC[C@H](CN4CCN(c5ccc6c(c5)C(=O)N(N5CCC(=O)NC5=O)C6=O)CC4)CC3)cc2cc1NC(=O)c1cccc(C(F)(F)F)n1 [GT-08647, N-(2-((1r,4r)-4-((4-(2-(2,4-dioxotetrahydropyrimidin-1(2H)-yl)-1,3-dioxoisoindolin-5-yl)piperazin-1-yl)methyl)cyclohexyl)-6-methoxy-2H-indazol-5-yl)-6-(trifluoromethyl) picolinamide]	A (0%≤substrate protein remaining %≤80%)
COc1cc2nn([C@H]3CC[C@H](CN4C5CCC4CN(c4ccc6c(c4)C(=O)N(N4CCC(=O)NC4=O)C6=O)C5)CC3)cc2cc1NC(=O)c1cccc(C(F)(F)F)n1 [GT-08654, N-(2-((1r,4r)-4-((3-(2-(2,4-dioxotetrahydropyrimidin-1(2H)-yl)-1,3-dioxoisoindolin-5-yl)-3,8-diazabicyclo[3.2.1]octan-8-yl)methyl)cyclohexyl)-6-methoxy-2H-indazol-5-yl)-6-(trifluoromethyl) picolinamide]	A (0%≤substrate protein remaining %≤80%)
COc1cc2nn([C@H]3CC[C@H](CN4CCN(c5cccc6c5C(=O)N(N5CCC(=O)NC5=O)C6=O)CC4)CC3)cc2cc1NC(=O)c1cccc(C(F)(F)F)n1 [GT-08655, N-(2-((1r,4r)-4-((4-(2-(2,4-dioxotetrahydropyrimidin-1(2H)-yl)-1,3-dioxoisoindolin-4-yl)piperazin-1-yl)methyl)cyclohexyl)-6-methoxy-2H-indazol-5-yl)-6-(trifluoromethyl) picolinamide]	A (0%≤substrate protein remaining %≤80%)
COc1cc2nn([C@H]3CC[C@H](CN4CCN(c5ccc6c(c5F)C(=O)N(N5CCC(=O)NC5=O)C6=O)CC4)CC3)cc2cc1NC(=O)c1cccc(C(F)(F)F)n1 [GT-08656, N-(2-((1r,4r)-4-((4-(2-(2,4-dioxotetrahydropyrimidin-1(2H)-yl)-4-fluoro-1,3-dioxoisoindolin-5-yl)piperazin-1-yl)methyl)cyclohexyl)-6-methoxy-2H-indazol-5-yl)-6-(trifluoromethyl) picolinamide]	A (0%≤substrate protein remaining %≤80%)
COc1cc2nn([C@H]3CC[C@H](CN4CCN(c5cc(F)c6c(c5)C(=O)N(N5CCC(=O)NC5=O)C6=O)CC4)CC3)cc2cc1NC(=O)c1cccc(C(F)(F)F)n1 [GT-08657, N-(2-((1r,4r)-4-((4-(2-(2,4-dioxotetrahydropyrimidin-1(2H)-yl)-7-fluoro-1,3-dioxoisoindolin-5-yl)piperazin-1-yl)methyl)cyclohexyl)-6-methoxy-2H-indazol-5-yl)-6-(trifluoromethyl) picolinamide]	A (0%≤substrate protein remaining %≤80%)
COc1cc2nn([C@H]3CC[C@H](CN4CCN(C5CCN(c6ccc7c(c6)C(=O)N(N6CCC(=O)NC6=O)C7=O)CC5)CC4)CC3)cc2cc1NC(=O)c1cccc(C(F)(F)F)n1 [GT-08658, N-(2-((1r,4r)-4-((4-(1-(2-(2,4-dioxotetrahydropyrimidin-1(2H)-yl)-1,3-dioxoisoindolin-5-yl)piperidin-4-yl)piperazin-1-yl)methyl)cyclohexyl)-6-methoxy-2H-indazol-5-yl)-6-(trifluoromethyl) picolinamide]	A (0%≤substrate protein remaining %≤80%)
COc1cc2nn([C@H]3CC[C@H](CN4CC5CCC4CN5c4ccc5c(c4)C(=O)N(N4CCC(=O)NC4=O)C5=O)CC3)cc2cc1NC(=O)c1cccc(C(F)(F)F)n1 (some centres unmarked) [GT-08660, N-(2-((1r,4r)-4-((5-(2-(2,4-dioxotetrahydropyrimidin-1(2H)-yl)-1,3-dioxoisoindolin-5-yl)-2,5-diazabicyclo[2.2.2]octan-2-yl)methyl)cyclohexyl)-6-methoxy-2H-indazol-5-yl)-6-(trifluoromethyl) picolinamide]	A (0%≤substrate protein remaining %≤80%)
